Assay results: PubChem BioAssay (NCI)
Several values for one entry are separate records, joined by “and”; a condition that tells them apart may be missing. Identical values can stand only once.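 Dose response: 5 concentrations. Exposure: 48 h. Format: 96-well plates. Endpoint: linear interpolation; highest concentration if not reached. GI50: concentration for 50% inhibition of growth. Definition used: TGI = concentration required for complete inhibition of growth.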

What follows are compounds tested on MDA-MB-468 breast (assay: growth of human tumour cells (NCI), 48 h).
With C=C(C)[C@@H]1CC[C@]2(COS(C)(=O)=O)CC[C@]3(C)[C@H](CC[C@@H]4[C@@]5(C)CCCNC(C)(C)[C@@H]5CC[C@]43C)[C@@H]12 the GI50 was 1750 nM and the TGI was 3230 nM. COc1ccc(-c2nnc3n(C)c(=O)c4ccccc4n23)cc1O gave a GI50 of 1210 nM and a TGI of 14000 nM. For O=C(O)c1cn(C2CC2)c2cc(N3CCN(S(=O)(=O)c4ccc(Cl)c(Cl)c4)CC3)c(F)cc2c1=O, the GI50 was 2240 nM and the TGI was 6890 nM. Work on O=C1C2C(C(=O)[N]1[Hg][c]1ccccc1)C1(Cl)C(Cl)=C(Cl)C2(Cl)C1(Cl)Cl (configuration not stated) yielded a GI50 of 233 nM and a TGI of 728 nM. In the case of O=C1Nc2ccccc2C12CC(c1ccccc1)=NN2 (configuration not stated), the GI50 is reported as 6960 nM and the TGI is reported as > 100000 nM. Cc1cc[c-]cc1.Fc1c[c-]c(-c2ccccn2)c(F)c1.N#CCC[PH+](CCC#N)c1ccccc1.[Pt+2] showed a GI50 of 2880 nM and a TGI of 9110 nM. CC(=O)OC1CCC2(C)C(CCC3C2CCC2(C)C(C4=CC(=O)OC4)CCC32)C1 (configuration not stated) was tested, and the GI50 was 5260 nM and the TGI was 44900 nM. In the case of Cc1cc(-c2ccccc2)c(C)n1Cc1ccc(Cl)cc1, the GI50 is reported as 1420 nM and the TGI is reported as 7540 nM. COc1cc(C(=O)/C=C/c2c(-c3ccc(F)cc3)nc3sccn23)cc(OC)c1OC gave a GI50 of 2810 nM and a TGI of 13600 nM. For O=C(Cc1ccc(/C=C/C(=O)c2ncc[nH]2)cc1)Nc1ccc(Br)cc1, the GI50 was 1420 nM and the TGI was 4090 nM. Work on O=C1C(N2CCN(c3ccccc3)CC2)=C(Cl)C(=O)c2ncccc21 yielded a GI50 of 1590 nM and a TGI of 3160 nM. In the case of O=C1NC(=O)c2c1c1c3ccccc3ccc1c1[nH]c3ccc(Br)cc3c21, the GI50 is reported as 1560 nM and the TGI is reported as 3990 nM. NC(=O)Nc1ccc2ncnc(Nc3ccc(Cl)cc3)c2c1 showed a GI50 of 1430 nM and a TGI of 8280 nM. CCN(CC)c1ccc(/C=C/C(=O)c2cccc(NS(C)(=O)=O)c2)cc1 was tested, and the GI50 was 3840 nM and the TGI was > 100000 nM. In the case of Cn1cc(-c2csc(-c3cn(CCN4CCOCC4)c4ccc(F)cc34)n2)c2cccnc21, the GI50 is reported as 2200 nM and the TGI is reported as 8590 nM. For COC(=O)[C@]12CC[C@@H](C)[C@H](C)[C@@H]1C1=CC[C@@H]3[C@@]4(C)C(c5ncon5)=C[C@@](C)(CO)C4=CC[C@@]3(C)[C@]1(C)CC2, the GI50 was 1950 nM and the TGI was 3800 nM. NC1=CC(=O)C(=O)c2cccnc21 showed a GI50 of 10600 nM and a TGI of 22500 nM. In the case of O=C1CC(c2ccccc2)Cc2nc3ccc(Cl)cc3cc21 (configuration not stated), the GI50 is reported as 2860 nM and the TGI is reported as > 26100 nM. For COc1ccc2c(c1)c(CC(=O)[Se]CCC#N)c(C)n2C(=O)c1ccc(Cl)cc1, the GI50 was 2500 nM and the TGI was 6930 nM. Nc1c(C(=O)Nc2cccc3ccccc23)sc2nc3c(cc12)CCCC3 was tested, and the GI50 was 327 nM and the TGI was > 100000 nM. For COc1ccc(C(=O)Nc2ncc(Cc3ccc(F)cc3)s2)cc1, the GI50 was 362 nM and the TGI was > 100000 nM. Compound COc1ccc(N2CCN(CC(=O)N3CCN(c4nnc(-c5ccccc5)c(-c5ccccc5)n4)CC3)CC2)cc1 has a GI50 of 2440 nM and a TGI of 12800 nM. COc1ccc(/C=C/c2nc(N3CCOCC3)c3cc(F)c(F)cc3n2)cc1OC gave a GI50 of 748 nM and a TGI of 8030 nM. In the case of C[C@@H]1CN(Cc2ccc(/C=C/c3n[nH]c4ccc5nc(-c6cn[nH]c6C(F)(F)F)c6c(c5c34)CCCC6)cc2)C[C@H](C)O1, the GI50 is reported as 5890 nM and the TGI is reported as 22200 nM. Cc1cc(N(CCCNc2ccnc3cc(Cl)ccc23)Cc2cccs2)nc(Cl)n1 showed a GI50 of 853 nM and a TGI of 5740 nM. With CC(C)(C)c1ccc(C(=O)N/N=C/c2ccc(O)cc2O)cc1 the GI50 was 396 nM and the TGI was 2240 nM. COCCNc1ccc2ncc(C#Cc3cncc(C(=O)Nc4ccc(CN5CCN(C)CC5)c(C(F)(F)F)c4)c3)n2n1 gave a GI50 of 101 nM and a TGI of 260 nM. For O=C(Cc1ccccc1)Nc1nnc(CCSCCc2nnc(NC(=O)Cc3ccccc3)s2)s1, the GI50 was 36000 nM and the TGI was > 100000 nM. With CC1=C[C@H]2c3c(c(O)c(O)c4oc5cc(O)cc(O)c5c(=O)c34)[C@H](c3cc(O)c(O)c4oc5cc(O)cc(O)c5c(=O)c34)[C@H]2C(C)(C)C1 the GI50 was 2070 nM and the TGI was 5670 nM and 6250 nM. Work on C=C(C=O)[C@@H]1CC[C@]2(C)[C@H](CC=C3[C@H]4[C@@H](C)[C@H](C)CC[C@]4(C(=O)OC)CC[C@]32C)[C@@]1(C)CCC#N yielded a GI50 of 1600 nM and a TGI of 3240 nM. For Oc1c(I)cc(I)cc1CNCCCN(Cc1ccccn1)Cc1ccccn1, the GI50 was 1010 nM and the TGI was 2340 nM. COc1cc2c3c(cc4c5c(ccc4c3c1OC)OCO5)N(CCN(C)C)C2=O was tested, and the GI50 was 73.1 nM and the TGI was 412 nM. In the case of Clc1ccccc1-c1nc2ccccc2[nH]1, the GI50 is reported as 37000 nM and the TGI is reported as > 100000 nM. Compound c1ccc(Cn2cc3c(c2)-c2oncc2CC3)cc1 has a GI50 of 331 nM. COc1cc(C2c3cc4c(cc3C3OC(=O)C2C3CO)OCO4)cc(OC)c1OC (configuration not stated) was tested, and the GI50 was < 10 nM and the TGI was > 100000 nM. Compound CN1CCN(c2nc(-c3csc(-c4ccccc4)n3)cc3ccccc23)CC1 has a GI50 of 1740 nM and a TGI of 4010 nM. Cc1ccc2c(n1)C(=O)C(Cl)=C(Nc1cccc(C(C)C)c1)C2=O gave a GI50 of 1200 nM and a TGI of 2610 nM. In the case of CCOC(=O)Nc1nc2c(F)c(F)c(F)cc2s1, the GI50 is reported as 53900 nM and the TGI is reported as > 100000 nM. c1ccc(-c2n(Cc3ccc4ccccc4n3)c3ccccc3[n+]2Cc2ccc3ccccc3n2)cc1 showed a GI50 of 105 nM and a TGI of 512 nM. Cc1ccc(C(=O)Nc2ccc(CN3CCN(C)CC3)c(C(F)(F)F)c2)cc1C#Cc1cncc2ncccc12 showed a GI50 of 1460 nM and a TGI of 18500 nM. In the case of CC(C)[C@@H](C(=O)O[C@@H]1/C=C/C(=O)O[C@@H](C)CCC/C=C/[C@@H]2C[C@H](O)C[C@H]21)[N+](C)(C)C, the GI50 is reported as > 100000 nM and the TGI is reported as > 100000 nM. Cc1cc2nc3ccc(N=Nc4ccc(N(C)C)cc4)cc3n(-c3ccccc3)c-2cc1=N showed a GI50 of 19.5 nM and a TGI of 199 nM. COc1cc(Nc2ncc3c(n2)-c2ccc(Cl)cc2C(c2c(F)cccc2OC)=NC3)ccc1C(=O)O gave a GI50 of 45.6 nM and a TGI of 19900 nM. With COC(=O)Nc1nc2c(OC)c(OC)c(OC)cc2[nH]1 the GI50 was 14300 nM and the TGI was > 77300 nM. In the case of Cc1cc(C)cc(Nc2nccc(-c3c(-c4ccc(F)cc4)ncn3C3CCNCC3)n2)c1, the GI50 is reported as 1140 nM and the TGI is reported as 2760 nM. In the case of O=C(c1ccc(O)cc1)c1ccc(C(=O)c2ccc(O)cc2)cc1, the GI50 is reported as 6500 nM and the TGI is reported as > 100000 nM. With O=C1OCC2=C1C(c1cccc(F)c1)c1cc3c(cc1N2CCO)OCCO3 (configuration not stated) the GI50 was 125 nM.
